Drawing on patent US20260062422A1 (Halda Therapeutics OpCo, Inc., priority 2022, published 2026), this text covers GI50 for 20 compounds.

The GI50 is the concentration at which growth is held to half of that of the control. A high value points to lower sensitivity of the cells.

Experiment [1] concerns T-Rex 293 cell line SC3 cells having increased expression of androgen receptor protein due to exposure to doxycycline. In words: Cellular growth inhibition, T-Rex 293 SC3 cells with doxycycline (androgen receptor induced), CellTiter-Glo. The format is cell-based. The following applies: T-Rex 293 SC3 cells with 10 ng/mL doxycycline (increased androgen receptor expression). In short, it runs like this:
(§1)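 GI50 came from a four-parameter fit of CellTiter-Glo 2.0 luminescence after 72 h compound exposure (0.5% DMSO, 37 °C), dosing 24 h post-seeding. SC3 clone cells (2500/well), transfected with wild-type androgen receptor, grew in charcoal-stripped serum medium lacking phenol red, induced with 10 ng/mL doxycycline or left uninduced.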
(In general: Cellular ATP, detected with luciferase, serves as a proxy for viable cell number.)

Experiment [2] relates to T-Rex 293 cell line SC3 cells lacking increased expression of androgen receptor protein. In words: Cellular growth inhibition, T-Rex 293 SC3 cells without doxycycline, CellTiter-Glo. The note with it: T-Rex 293 SC3 cells not exposed to doxycycline, CellTiter-Glo 2.0. The format is cell-based. In short, it runs like this: as §1
The test system of the next experiment is VCaP cells. As to the kind of experiment: Cellular growth inhibition assay for VCaP cells, CellTiter-Glo. The class given is cell-based, human. The following applies: 72 hours treatment, CellTiter-Glo 2.0. In short, it runs like this: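 GI50 values come from four-parameter curve fits of luminescence data normalized to a zero baseline. Compound, in medium with 0.5% DMSO, was added one day after plating and left for 72 h before CellTiter-Glo 2.0 addition.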

As to `Cc1sc2c(c1C)C(c1ccc(OCCOCCOCCOC3CCN(c4ncc(C(=O)N[C@H]5C(C)(C)[C@H](Oc6ccc(C#N)c(Cl)c6)C5(C)C)cn4)CC3)cc1)=N[C@@H](CC(=O)O)c1nnc(C)n1-2` [Compound I-40], the 50% growth inhibitory concentration (GI50) in experiment [1] (72 h) was more than 3000 nM; in experiment [2] (72 h), more than 3000 nM; in the experiment with VCaP cells (Homo sapiens, VCaP, 72 h) it was more than 3000 nM.

Turning to `Cc1sc2c(c1C)C(c1cccc(OCCOC3CCN(c4ncc(C(=O)N[C@H]5C(C)(C)[C@H](Oc6ccc(C#N)c(Cl)c6)C5(C)C)cn4)CC3)c1)=N[C@@H](CC(=O)O)c1nnc(C)n1-2` [Compound I-41], the GI50 in experiment [1] (72 h) is 500 to 1500 nM; in experiment [2] (72 h) it was more than 3000 nM; with VCaP cells (Homo sapiens, VCaP, 72 h) it was more than 3000 nM.

`CCNC(=O)C[C@@H]1N=C(c2ccc(N(C3CC3)C3CN(CC4CCN(c5ncc(C(=O)N[C@H]6C(C)(C)[C@H](Oc7ccc(C#N)c(Cl)c7)C6(C)C)cn5)CC4)C3)cc2)c2c(sc(C)c2C)-n2c(C)nnc21` [Compound I-129]: the GI50 in experiment [1] (72 h) was less than 500 nM; in experiment [2] (72 h), 1500 to 3000 nM; with VCaP cells (Homo sapiens, VCaP, 72 h) it was less than 500 nM.

For `CCNC(=O)C[C@@H]1N=C(c2ccc(N(C)CCN3CCN(c4ncc(C(=O)N[C@H]5C(C)(C)[C@H](Oc6ccc(C#N)c(Cl)c6)C5(C)C)cn4)CC3)cc2)c2c(sc(C)c2C)-n2c(C)nnc21` [Compound I-108], the GI50 in experiment [1] (72 h) was less than 500 nM; in experiment [2] (72 h), less than 500 nM; in the experiment on VCaP cells (Homo sapiens, VCaP, 72 h), 500 to 1500 nM.

`Cc1sc2c(c1C)C(c1ccc(Cl)cc1)=N[C@@H](CC(=O)NCCOCCOCCOCC1CN(c3ncc(C(=O)N[C@H]4C(C)(C)[C@H](Oc5ccc(C#N)c(Cl)c5)C4(C)C)cn3)C1)c1nnc(C)n1-2` [Compound I-18]: the concentration for 50% growth inhibition (GI50) in experiment [1] (72 h) was 500 to 1500 nM; in experiment [2] (72 h), 1500 to 3000 nM; in the experiment on VCaP cells (Homo sapiens, VCaP, 72 h), less than 500 nM.

In the case of `CCNC(=O)C[C@@H]1N=C(c2cccc(OCCOCCOCCOC3CCN(c4ncc(C(=O)N[C@H]5C(C)(C)[C@H](Oc6ccc(C#N)c(Cl)c6)C5(C)C)cn4)CC3)c2)c2c(sc(C)c2C)-n2c(C)nnc21` [Compound I-48, N-((1r,3r)-3-(3-chloro-4-cyanophenoxy)-2,2,4,4-tetramethylcyclobutyl)-2-(4-(2-(2-(2-(3-((S)-6-(2-(ethylamino)-2-oxoethyl)-2,3,9-trimethyl-6H-thieno[3,2-f][1,2,4]triazolo[4,3-a][1,4]diazepin-4-yl)phenoxy)ethoxy)ethoxy)ethoxy)piperidin-1-yl)pyrimidine-5-carboxamide], the GI50 is less than 500 nM in experiment [1] (72 h); 500 to 1500 nM in experiment [2] (72 h); less than 500 nM with VCaP cells (Homo sapiens, VCaP, 72 h).

Turning to `Cc1sc2c(c1C)C(c1ccc(Cl)cc1)=N[C@@H](CC(=O)NCCOCCOCCOCCOC1CCN(c3ncc(C(=O)N[C@H]4C(C)(C)[C@H](Oc5ccc(C#N)c(Cl)c5)C4(C)C)cn3)CC1)c1nnc(C)n1-2` [Compound I-11], the GI50 in experiment [1] (72 h) was less than 500 nM; in experiment [2] (72 h), 1500 to 3000 nM; with VCaP cells (Homo sapiens, VCaP, 72 h), less than 500 nM.

With `Cc1sc2c(c1C)C(c1ccc(OCCOC3CCN(c4ncc(C(=O)N[C@H]5C(C)(C)[C@H](Oc6ccc(C#N)c(Cl)c6)C5(C)C)cn4)CC3)cc1)=N[C@@H](CC(=O)OC(C)(C)C)c1nnc(C)n1-2` [Compound I-235, tert-butyl 2-((S)-4-(4-(2-((1-(5-(((1r,3r)-3-(3-chloro-4-cyanophenoxy)-2,2,4,4-tetramethylcyclobutyl)carbamoyl)pyrimidin-2-yl)piperidin-4-yl)oxy)ethoxy)phenyl)-2,3,9-trimethyl-6H-thieno[3,2-f][1,2,4]triazolo[4,3-a][1,4]diazepin-6-yl)acetate], the 50% growth inhibitory concentration (GI50) was less than 500 nM in experiment [1] (72 h); more than 3000 nM in experiment [2] (72 h); less than 500 nM in the experiment on VCaP cells (Homo sapiens, VCaP, 72 h).

With `Cc1sc2c(c1C)C(c1ccc(Cl)cc1)=N[C@@H](CC(=O)NCCOCCOCCOCCOCCN(C)c1ncc(C(=O)N[C@H]3C(C)(C)[C@H](Oc4ccc(C#N)c(Cl)c4)C3(C)C)cn1)c1nnc(C)n1-2` [Compound I-3, N-((1r,3r)-3-(3-chloro-4-cyanophenoxy)-2,2,4,4-tetramethylcyclobutyl)-2-((1-((S)-4-(4-chlorophenyl)-2,3,9-trimethyl-6H-thieno[3,2-f][1,2,4]triazolo[4,3-a][1,4]diazepin-6-yl)-2-oxo-6,9,12,15-tetraoxa-3-azaheptadecan-17-yl)(methyl)amino)pyrimidine-5-carboxamide], the GI50 is less than 500 nM in experiment [1] (72 h); more than 3000 nM in experiment [2] (72 h); less than 500 nM in the experiment on VCaP cells (Homo sapiens, VCaP, 72 h).

Consider `CCNC(=O)C[C@@H]1N=C(c2ccc(OCCOC3CCN(c4ncc(C(=O)N[C@H]5C(C)(C)[C@H](Oc6ccc(C#N)c(Cl)c6)C5(C)C)cn4)CC3)c(F)c2F)c2c(sc(C)c2C)-n2c(C)nnc21` [Compound I-73], for which the 50% growth inhibitory concentration (GI50) in experiment [1] (72 h) was less than 500 nM; in experiment [2] (72 h), 500 to 1500 nM; in the experiment with VCaP cells (Homo sapiens, VCaP, 72 h), less than 500 nM.

With `CCN(C)C(=O)C[C@@H]1N=C(c2ccc(OCCOC3CCN(c4ncc(C(=O)N[C@H]5C(C)(C)[C@H](Oc6ccc(C#N)c(Cl)c6)C5(C)C)cn4)CC3)cc2)c2c(sc(C)c2C)-n2c(C)nnc21` [Compound I-66], the concentration for 50% growth inhibition (GI50) in experiment [1] (72 h) is less than 500 nM; in experiment [2] (72 h) it was less than 500 nM; with VCaP cells (Homo sapiens, VCaP, 72 h), less than 500 nM.

Take `CCNC(=O)C[C@@H]1N=C(c2cccc(OCCOCCOC3CCN(c4ncc(C(=O)N[C@H]5C(C)(C)[C@H](Oc6ccc(C#N)c(Cl)c6)C5(C)C)cn4)CC3)c2)c2c(sc(C)c2C)-n2c(C)nnc21` [Compound I-47, N-((1r,3r)-3-(3-chloro-4-cyanophenoxy)-2,2,4,4-tetramethylcyclobutyl)-2-(4-(2-(2-(3-((S)-6-(2-(ethylamino)-2-oxoethyl)-2,3,9-trimethyl-6H-thieno[3,2-f][1,2,4]triazolo[4,3-a][1,4]diazepin-4-yl)phenoxy)ethoxy)ethoxy)piperidin-1-yl)pyrimidine-5-carboxamide]: the concentration for 50% growth inhibition (GI50) in experiment [1] (72 h) is less than 500 nM; in experiment [2] (72 h), 500 to 1500 nM; in the experiment with VCaP cells (Homo sapiens, VCaP, 72 h) it was 500 to 1500 nM.

For `Cc1sc2c(c1C)C(c1ccc(Cl)cc1)=N[C@H](CC(=O)NCCOCCOCCOCCOCCOC1CCN(c3ncc(C(=O)N[C@H]4C(C)(C)[C@H](Oc5ccc(C#N)c(Cl)c5)C4(C)C)cn3)CC1)c1nnc(C)n1-2` [Compound I-14], the GI50 was more than 3000 nM in experiment [1] (72 h); more than 3000 nM in experiment [2] (72 h); more than 3000 nM with VCaP cells (Homo sapiens, VCaP, 72 h).

With `CCNC(=O)C[C@@H]1N=C(c2ccc(N3CCC(OC4CCN(c5ncc(C(=O)N[C@H]6C(C)(C)[C@H](Oc7ccc(C#N)c(Cl)c7)C6(C)C)cn5)CC4)CC3)cc2)c2c(sc(C)c2C)-n2c(C)nnc21` [Compound I-114], the GI50 is less than 500 nM in experiment [1] (72 h); 500 to 1500 nM in experiment [2] (72 h); less than 500 nM in the experiment with VCaP cells (Homo sapiens, VCaP, 72 h).

For `CCNC(=O)C[C@@H]1N=C(c2ccc(CCCC3CCN(c4ncc(C(=O)N[C@H]5C(C)(C)[C@H](Oc6ccc(C#N)c(Cl)c6)C5(C)C)cn4)CC3)cc2)c2c(sc(C)c2C)-n2c(C)nnc21` [Compound I-95], the GI50 was less than 500 nM in experiment [1] (72 h); less than 500 nM in experiment [2] (72 h); 1500 to 3000 nM in the experiment with VCaP cells (Homo sapiens, VCaP, 72 h).

Consider `Cc1sc2c(c1C)C(c1ccc(Cl)cc1)=N[C@@H](CC(=O)NCCCCCOC1CCN(c3ncc(C(=O)N[C@H]4C(C)(C)[C@H](Oc5ccc(C#N)c(Cl)c5)C4(C)C)cn3)CC1)c1nnc(C)n1-2` [Compound I-22, N-((1r,3r)-3-(3-chloro-4-cyanophenoxy)-2,2,4,4-tetramethylcyclobutyl)-2-(4-((5-(2-((S)-4-(4-chlorophenyl)-2,3,9-trimethyl-6H-thieno[3,2-A][1,2,4]triazolo[4,3-a][1,4]diazepin-6-yl)acetamido)pentyl)oxy)piperidin-1-yl)pyrimidine-5-carboxamide], for which the concentration for 50% growth inhibition (GI50) in experiment [1] (72 hours) was less than 500 nM; in experiment [2] (72 hours), more than 3000 nM; with VCaP cells, less than 500 nM.

In the case of `Cc1sc2c(c1C)C(c1ccc(C[C@H]3C[C@@H]([C@@H]4CCCN(c5ncc(C(=O)N[C@H]6C(C)(C)[C@H](Oc7ccc(C#N)c(Cl)c7)C6(C)C)cn5)C4)C3)cc1)=N[C@@H](Cc1ncco1)c1nnc(C)n1-2` [Compound I-161], the 50% growth inhibitory concentration (GI50) in experiment [1] (72 h) was less than 500 nM; in experiment [2] (72 h), 500 to 1500 nM; with VCaP cells (Homo sapiens, VCaP, 72 h), less than 500 nM.

Take `Cc1sc2c(c1C)C(c1ccc(CC3CN(CC4CCN(c5ncc(C(=O)N[C@H]6C(C)(C)[C@H](Oc7ccc(C#N)c(Cl)c7)C6(C)C)cn5)CC4)C3)cc1)=N[C@@H](Cc1ncco1)c1nnc(C)n1-2` [Compound I-153]: the GI50 was less than 500 nM in experiment [1] (72 h); 500 to 1500 nM in experiment [2] (72 h); less than 500 nM in the experiment on VCaP cells (Homo sapiens, VCaP, 72 h).

For `CCNC(=O)C[C@@H]1N=C(c2ccc(N(C)CC3CN(c4ncc(C(=O)N[C@H]5C(C)(C)[C@H](Oc6ccc(C#N)c(Cl)c6)C5(C)C)cn4)C3)cc2)c2c(sc(C)c2C)-n2c(C)nnc21` [Compound I-107], the GI50 was less than 500 nM in experiment [1] (72 h); 500 to 1500 nM in experiment [2] (72 h); less than 500 nM in the experiment with VCaP cells (Homo sapiens, VCaP, 72 h).

On to `CCNC(=O)C[C@@H]1N=C(c2ccc(OCC3CN(c4ncc(C(=O)N[C@H]5C(C)(C)[C@H](Oc6ccc(C#N)c(Cl)c6)C5(C)C)cn4)C3)cc2)c2c(sc(C)c2C)-n2c(C)nnc21` [Compound I-71], for which the 50% growth inhibitory concentration (GI50) in experiment [1] (72 h) is less than 500 nM; in experiment [2] (72 h), 500 to 1500 nM; with VCaP cells (Homo sapiens, VCaP, 72 h) it was less than 500 nM.
